Source: patent US8507690B2, “Thiazole derivative and use thereof as VAP-1 inhibitor” (R-Tech Ueno, Ltd., priority 2008, dated 2013)

What was measured:
rat VAP-1 enzyme (SSAO) = target: T1, rat VAP-1 enzyme (SSAO) (Rattus norvegicus, UniProt O08590); experiment: Enzyme activity inhibitory effect on rat VAP-1 enzyme (SSAO), radiochemical-enzyme assay with 14C-benzylamine; format: biochemical; details: rat VAP-1 (SSAO) cell extract, 14C-benzylamine 1×10^−5 mol/l, 37° C. 2 hours
T1 construct: made in house; cell extract used
T1 sequence (O08590 1-763): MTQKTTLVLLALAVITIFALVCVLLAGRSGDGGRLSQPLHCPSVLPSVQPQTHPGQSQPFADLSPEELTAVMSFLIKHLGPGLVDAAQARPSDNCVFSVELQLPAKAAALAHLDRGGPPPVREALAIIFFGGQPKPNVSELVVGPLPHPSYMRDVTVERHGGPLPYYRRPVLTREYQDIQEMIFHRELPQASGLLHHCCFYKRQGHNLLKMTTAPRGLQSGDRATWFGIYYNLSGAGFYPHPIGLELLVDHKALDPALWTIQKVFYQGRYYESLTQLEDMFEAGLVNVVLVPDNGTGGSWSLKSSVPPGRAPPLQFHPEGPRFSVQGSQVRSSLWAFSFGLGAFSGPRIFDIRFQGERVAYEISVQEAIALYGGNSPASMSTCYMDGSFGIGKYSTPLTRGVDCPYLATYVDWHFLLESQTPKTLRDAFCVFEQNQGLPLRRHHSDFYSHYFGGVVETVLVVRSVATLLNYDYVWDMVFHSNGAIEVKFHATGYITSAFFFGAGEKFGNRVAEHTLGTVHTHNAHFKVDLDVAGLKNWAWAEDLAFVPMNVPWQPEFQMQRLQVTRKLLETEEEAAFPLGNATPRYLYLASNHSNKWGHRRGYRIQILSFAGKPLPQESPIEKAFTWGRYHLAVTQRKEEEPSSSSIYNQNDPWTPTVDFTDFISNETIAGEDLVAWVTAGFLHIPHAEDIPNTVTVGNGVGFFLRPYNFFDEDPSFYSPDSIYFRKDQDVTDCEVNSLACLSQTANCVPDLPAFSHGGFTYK
Experimental: (§1) The compounds of the present invention obtained in Production Examples were examined for the enzyme activity inhibitory effect on human and rat VAP-1 enzyme (SSAO) by the following method.
(§2) The VAP-1 enzyme (SSAO) activity in both human and rat was measured by a radiochemical-enzyme assay using ^14C-benzylamine as an artificial substrate. Human or rat VAP-1 was cloned from the cDNA library and expressed in a cell. The cell extract was preincubated with a test compound solution (final concentration 1×10^−7-1×10^−11 mol/l) at room temperature for 20 minutes. Then, ^14C-benzylamine (final concentration 1×10^−5 mol/l) was added, and the mixture was incubated at a final volume of 200 μl at 37° C. for 2 hours. The enzyme reaction was stopped by addition of 2 mol/l (200 μl) citric acid. The oxidation product was extracted with 1 ml toluene/ethyl acetate (1:1), and the radioactivity thereof was measured by a liquid scintillation counter.

[1] = target: T2, human VAP-1 enzyme (SSAO) (Homo sapiens, UniProt Q16853); experiment: Enzyme activity inhibitory effect on human VAP-1 enzyme (SSAO), radiochemical-enzyme assay with 14C-benzylamine; format: biochemical; details: human VAP-1 (SSAO) cell extract, 14C-benzylamine 1×10^−5 mol/l, 37° C. 2 hours
T2 construct: made in house; cell extract used
T2 sequence (Q16853 1-763): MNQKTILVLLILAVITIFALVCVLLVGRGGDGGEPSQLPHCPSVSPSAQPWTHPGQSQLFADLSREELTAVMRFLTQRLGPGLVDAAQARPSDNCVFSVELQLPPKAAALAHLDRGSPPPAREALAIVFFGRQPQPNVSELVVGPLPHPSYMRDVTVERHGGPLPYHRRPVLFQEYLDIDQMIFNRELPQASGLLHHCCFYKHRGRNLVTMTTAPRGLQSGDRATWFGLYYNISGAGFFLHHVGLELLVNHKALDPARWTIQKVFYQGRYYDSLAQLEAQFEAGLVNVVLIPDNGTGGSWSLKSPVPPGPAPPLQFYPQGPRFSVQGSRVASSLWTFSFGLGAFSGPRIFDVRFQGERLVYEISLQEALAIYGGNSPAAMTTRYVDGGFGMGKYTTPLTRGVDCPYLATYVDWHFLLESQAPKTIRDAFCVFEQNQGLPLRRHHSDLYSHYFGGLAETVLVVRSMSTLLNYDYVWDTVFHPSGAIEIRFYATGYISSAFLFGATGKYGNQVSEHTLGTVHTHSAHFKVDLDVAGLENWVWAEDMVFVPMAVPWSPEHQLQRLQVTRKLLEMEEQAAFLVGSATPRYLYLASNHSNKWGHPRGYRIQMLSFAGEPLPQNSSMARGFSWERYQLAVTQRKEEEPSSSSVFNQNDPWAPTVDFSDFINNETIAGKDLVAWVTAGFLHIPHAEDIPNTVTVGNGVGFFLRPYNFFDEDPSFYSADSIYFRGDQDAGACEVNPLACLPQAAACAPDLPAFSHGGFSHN
Experimental: as §1, §2

Row | Compound | IC50 (rat VAP-1 enzyme (SSAO)) [nM] | IC50 [1] [nM] | melting point [°C]
1 | CC(=O)Nc1nc(CCc2cc(CCCOC(=O)NN)cs2)cs1.Cl [Production Example 16, 3-(5-{2-[2-(acetylamino)-1,3-thiazol-4-yl]ethyl}thiophen-3-yl)propyl hydrazinecarboxylate hydrochloride] | 10.5 | 16.7 | 98 to 102
2 | CC(=O)Nc1nc(C(=O)Oc2ccc(CCNC(=O)NN)cc2)cs1.Cl [Production Example 26, 4-{2-[(hydrazinocarbonyl)amino]ethyl}phenyl 2-(acetylamino)-1,3-thiazole-4-carboxylate hydrochloride] | 3.3 | 13.3 | 204 to 207
3 | CC(=O)Nc1nc(CCc2cc(C)c(CCCOC(=O)NN)s2)cs1.Cl [Production Example 17, 3-(5-{2-[2-(acetylamino)-1,3-thiazol-4-yl]ethyl}-3-methylthiophen-2-yl)propyl hydrazinecarboxylate hydrochloride] | 5 | 68.7 | 111 to 115
4 | CC(=O)Nc1nc(CCc2cccc(CCNC(=O)NN)c2)cs1.Cl [Production Example 28, N-[2-(3-{2-[2-(acetylamino)-1,3-thiazol-4-yl]ethyl}phenyl)ethyl]hydrazinecarboxamide hydrochloride] | 5.6 | 44.3 | 176 to 179
5 | CC(=O)Nc1nc(CCc2ccc(OC(=O)NN)cc2)cs1.Cl [Production Example 1, 4-{2-[2-(acetylamino)-1,3-thiazol-4-yl]ethyl}phenyl hydrazinecarboxylate hydrochloride] | 0.2 | 2.5 | 167 to 169

Further lines, results first:

Row | IC50 (rat VAP-1 enzyme (SSAO)) [nM] | IC50 [1] [nM] | melting point [°C] | Compound
6 | 2.3 | 11.7 | 172 to 174 | CC(=O)Nc1nc(CCc2ccc(CCOC(=O)NN)cc2)cs1.Cl [Production Example 3, 2-(4-{2-[2-(acetylamino)-1,3-thiazol-4-yl]ethyl}phenyl)ethyl hydrazinecarboxylate hydrochloride]
7 | 1.6 | 2.8 | 172 to 175 | CC(=O)Nc1nc(CCc2ccc(CNC(=O)NN)c(F)c2)cs1.Cl [Production Example 20, N-(4-{2-[2-(acetylamino)-1,3-thiazol-4-yl]ethyl}-2-fluorobenzyl)hydrazinecarboxamide hydrochloride]
8 | 0.6 | 13.4 | 150 to 153 | CC(=O)Nc1nc(CCc2csc(CCCOC(=O)NN)c2)cs1.Cl [Production Example 15, 3-(4-{2-[2-(acetylamino)-1,3-thiazol-4-yl]ethyl}thiophen-2-yl)propyl hydrazinecarboxylate hydrochloride]
9 | 2.3 | 12.2 | 171 to 173 | CC(=O)Nc1nc(CCc2ccc(CCNC(=O)NN)cc2)cs1.Cl [Production Example 19, N-[2-(4-{2-[2-(acetylamino)-1,3-thiazol-4-yl]ethyl}phenyl)ethyl]hydrazinecarboxamide hydrochloride]
10 | 0.6 | 1.8 | 158 to 161 | CC(=O)Nc1nc(CCc2ccc(CNC(=O)NN)s2)cs1.Cl [Production Example 29, N-[2-(5-{2-[2-(acetylamino)-1,3-thiazol-4-yl]ethyl}thiophen-2-yl)methyl]hydrazinecarboxamide hydrochloride]
11 | 0.5 | 3.2 | 138 to 140 | CC(=O)Nc1nc(CCc2cccc(CCOC(=O)NN)c2)cs1.Cl [Production Example 12, 2-(3-{2-[2-(acetylamino)-1,3-thiazol-4-yl]ethyl}phenyl)ethyl hydrazinecarboxylate hydrochloride]
12 | 1.3 | 4 | 167 to 169 | CC(=O)Nc1nc(CCc2ccc(CNC(=O)NN)cc2)cs1.Cl [Production Example 18, N-(4-{2-[2-(acetylamino)-1,3-thiazol-4-yl]ethyl}benzyl)hydrazinecarboxamide hydrochloride]
13 | 0.2 | 1.3 | 113 to 119 | CC(=O)Nc1nc(CCc2cccc(COC(=O)NN)c2)cs1.Cl [Production Example 11, 3-{2-[2-(acetylamino)-1,3-thiazol-4-yl]ethyl}benzyl hydrazinecarboxylate hydrochloride]
